Measured values from patent publication US8198291B2, “Intranasal opioid compositions” (University of Kentucky Research Foundation, priority 2000, dated 2012).

Legend:
[1] = Pharmacokinetics of butorphanol formulation without benzethonium chloride, Pfeiffer Unitdose Second Generation device; type: in vivo, human; settings: single 2 mg intranasal dose, unit-dose device
Text: This formulation had the following spray pattern function when sprayed from the Pfeiffer Unitdose Second Generation device onto an impaction plate from at various distances.
The formulation had the following function and properties when administered to human subjects via the Pfeiffer Unitdose Second Generation spray device.

[2] = Bioavailability/bioequivalence of intranasal butorphanol formulation, unit-dose vs multi-dose spray device; type: in vivo, human
Procedure: This example compares bioavailability of a butorphanol formulation when administered using a unit-dose or multi-dose delivery device. The formulation contains 10 mg butorphanol tartrate, 6.5 mg sodium chloride, 1.0 mg citric acid, 0.20 mg benzethonium chloride in purified water with 1.2 mg sodium hydroxide and hydrochloric acid added to adjust the pH to 5.0. The multi-dose sprayer purports by its label to administer 0.1 ml of liquid composition by metering upon activation by the user. The formulation had the following function and properties when administered to human subjects via the Pfeiffer Unitdose Second Generation spray device.
The second delivery system employed to administer the butorphanol compositions was a unit-dose disposable intranasal applicator that is commercially available from Pfeiffer of America under the designation “Unitdose Second Generation.” Each of the Pfeiffer spray applicators was charged with sufficient liquid to deliver a 0.1 mL dose of the butorphanol test formulation. The glass containers were filled using a pipette under clean conditions, sealed and assembled to the applicator. Each of the applicators was weighed prior to use and after use. Qualified medical personnel administered, one dose into each nostril, after which the applicator was recovered for weighing. In the case of the unit-dose applicators (test formulation), two devices were used for each patient, both of which were discarded following the post-use weighing. The results of these studies of the method and system of the invention and the comparative prior art method follow.
This example assesses the bioequivalence of a butorphanol formulation administered from the unit-dose or multi-dose sprayers described above. The test formulation comprises 1 ml of STADOL NS containing 10 mg butorphanol tartrate, 6.5 mg sodium chloride, 1.0 mg citric acid, 0.20 mg benzethonium chloride in purified water with 1.2 mg sodium hydroxide and hydrochloric acid added to adjust the pH to 5.0. The multi-dose sprayer accompanying STADOL NS purports, by its label, to administer 0.1 ml of liquid. The unit-dose delivery device delivers 0.1 ml of liquid.
The second analysis was to determine whether the intrasubject variabilities of the two spray devices are equal. The study was initiated with 16 subjects, 15 of which completed the study to provide data for this analysis; one subject dropped out after the second period. The following analysis considers both raw and normalized data, with the latter standardized with respect to the dose dispensed.
For both the raw and normalized data, log transformations are applied to the pharmacokinetic endpoints Cmax, AUC ([…]), and AUC(inf.). A mixed effects model was considered for each parameter. Fixed effects for the factors sequence (4 levels), period 3 levels) and formulation (2 levels) were included in the model. Additionally, gender, as well as the interactions between gender and each of sequence, period and formulation was included as a factor in each model to determine whether separate analyses would be necessary for males and females. A total of seven models were considered: Tmax, log of raw Cmax values, log of normalized Cmax values, log transformed values for raw and normalized AUC(last), and log values for raw and normalized AUC(inf.). […] In addition, the lack of significance of the effects included in each model indicate that there was no evidence of unequal carryover between the delivery system of the prior art and that in one embodiment of the present invention.
The mean levels of butorphanol from analysis of the subject's blood plasma reported in pg/ml are plotted against time in FIGS. 1 and 2. The concentration of drug for the unit-dose was unexpectedly higher than that of the multi-dose system. The testing for bioequivalence was done using the method of two one-sided t-test (as described by Bolton, S., Pharmaceutical Statistics. Marcel Dekker, Inc., New York, 1997, pages 415 ff.). […]

[3] = 2 mg intranasal dose, Pfeiffer Unitdose Second Generation spray device, formulation with benzethonium chloride
[4] = 90% CI, line between normCmax and normAUCinf, exponentiated, unit-dose vs multi-dose
[5] = 90% CI, normalized to dispensed dose, exponentiated, unit-dose vs multi-dose
[6] = 90% CI, raw data, exponentiated, unit-dose vs multi-dose
[7] = 90% confidence interval, unit-dose (test) vs multi-dose (reference)
[8] = intranasal, multi-dose spray pump

O=C(O)C(O)C(O)C(=O)O.Oc1ccc2c(c1)[C@@]13CCCC[C@@]1(O)[C@@H](C2)N(CC1CCC1)CC3 [butorphanol tartrate]
Tmax [1]: about 0.25 hr | AUC(0-t) [2, 3]: about 10661 pg*hr/ml | Cmax [2, 3]: about 5230 pg/ml | Tmax [2, 3]: about 0.234 hr | log(AUClast) (second line of the table), Lower Conf Limit for Ratio of Test/Reference [2, 4]: 0.921 | log(AUClast) (second line of the table), Upper Conf Limit for Ratio of Test/Reference [2, 4]: 1.290 | log(normAUCinf), Lower Conf Limit for Ratio of Test/Reference [2, 5]: 0.937 | log(normAUCinf), Upper Conf Limit for Ratio of Test/Reference [2, 5]: 1.220 | log(normCmax), Lower Conf Limit for Ratio of Test/Reference [2, 5]: 0.897 | log(normCmax), Upper Conf Limit for Ratio of Test/Reference [2, 5]: 1.589 | log (AUClast), Lower Conf Limit for Ratio of Test/Reference [2, 6]: 1.037 | log (AUClast), Upper Conf Limit for Ratio of Test/Reference [2, 6]: 1.540 | log (Cmax), Lower Conf Limit for Ratio of Test/Reference [2, 6]: 1.031 | log (Cmax), Upper Conf Limit for Ratio of Test/Reference [2, 6]: 1.855 | log(AUCinf), Lower Conf Limit for Ratio of Test/Reference [2, 6]: 1.050 | log(AUCinf), Upper Conf Limit for Ratio of Test/Reference [2, 6]: 1.461 | Tmax, Lower Conf Limit for Ratio of Test/Reference [2, 7]: 0.749 | Tmax, Upper Conf Limit for Ratio of Test/Reference [2, 7]: 1.132 | AUC(0-t) [2, 8]: 9.329 ng·h/mL | Cmax [2, 8]: 4.072 ng/mL | Tmax [2, 8]: 14.7 min | area under the curve from multi-dose device as percent of that of the test (unit-dose) ([2]; multi-dose vs unit-dose device): 90% | higher area under the curve of test device compared to reference device ([2]; unit-dose vs multi-dose device): 10% | higher serum levels of test device compared to reference device ([2]; unit-dose vs multi-dose device): 10%
